Assay [1] has as its system patients with PD-L1 combined positive score ≤1. On the set-up: method as in PMID 32359091, PMID 32352498, PMID 35611499, PMID 34907910. The note with it: CCA, KEYNOTE-158; cited from earlier work.
The subject of another assay is patients with RCC. The note with it: nivolumab monotherapy after previous ICI therapy, retrospective, cited from earlier work.
A further assay concerns RCC. The assay can be described thus: prior regimens of the RCC responders. The assay is classed as in vivo, human. To be noted: prior regimens of person RCC responder.

Where two headings read alike, the source gives them in different places.

Take “pembrolizumab: ICI monotherapy in the KEYNOTE-158 trial”: the ORR in assay [1] is recorded as 2.9%.

Take nivolumab: PD-1 inhibitor: the results for the ORR in the assay with patients with RCC (ref 33) and in the assay on patients with RCC (ref 34) were 16% and 23%, respectively.

`COc1cc2nccc(Oc3ccc(NC(=O)C4(C(=O)Nc5ccc(F)cc5)CC4)cc3)c2cc1OC` [Cabozantinib] gave a Duration in the assay on RCC of 6.3 mo.

The molecule `CO[C@H]1C[C@@H]2CC[C@@H](C)[C@@](O)(O2)C(=O)C(=O)N2CCCC[C@H]2C(=O)O[C@H]([C@H](C)C[C@@H]2CC[C@@H](OCCO)[C@H](OC)C2)CC(=O)[C@H](C)/C=C(\C)[C@@H](O)[C@@H](OC)C(=O)[C@H](C)C[C@H](C)/C=C/C=C/C=C/1C` [Everolimus] displayed a Duration in the assay on RCC of 6.1 mo.

Values taken from article PMC11025498, “First-in-human Phase I Trial of TPST-1120, an Inhibitor of PPARα, as Monotherapy or in Combination with Nivolumab, in Patients with Advanced Solid Tumors” (Cancer Research Communications, 2024).
